In publication PMC12817916, “A small-molecule HSP90 inhibitor, NVP-HSP990, alleviates rotavirus infection” (Journal of Virology, 2025):

Tested on: MAPK signaling pathway (ERK1/2, p38 MAPK, SAPK/JNK)
Assay: Western blot of MAPK components
Assay type: cell-based
Conditions: WB; for MAPK activation (especially ERK1/2 and p38 MAPK): 100 nM, 20 h
Description: MA104, Caco-2, and HT-29 cells were mock-infected with PBS, infected with RV Wa or SA11 strains (MOI = 3), or treated with 1 µM C16-PAF (C16) for 1 h. After removing the viruses or C16-PAF and washing cells two times with DMEM, the cells were cultivated with 2 mL DMEM containing 100 nM NVP-HSP990 (+), an equal volume of DMSO (−), or 1 µM C16-PAF at 37°C and 5% CO2 for 20 h. Then, the cells in each well (~5 × 10^5 cells) were lysed with 100 µL RIPA lysis buffer (Beyotime, China) plus protease inhibitor cocktail (Thermo Fisher Scientific, USA). The cell lysates were collected in 1.5 mL EP tubes, sonicated five times for 15 s at 80 watts on ice, and clarified by centrifugation at 12,000 × g for 10 min at 4°C. After protein quantification with a BCA kit (Beyotime, China), the protein samples were mixed with 25 µL 5× SDS loading buffer (Beyotime, China), boiled at 100°C for 5 min, chilled on ice, vortexed for seconds, and centrifuged at 12,000 × g for 3 min at room temperature. Twenty micrograms of protein was subjected to protein electrophoresis in precast 4–20% SDS-PAGE gels (Beyotime, China), and then transferred to 0.22 µm PVDF membranes (Millipore, USA). After blocking with 5% BSA, the membranes were incubated with rabbit antibodies to MAPK components (SAPK/JNK, phospho-SAPK/JNK, p38 MAPK, phospho-p38 MAPK, ERK1/2, phospho-ERK1/2) (CST, USA), rabbit anti-RV VP6/VP7 polyclonal antibodies (CUSABIO, China), or mouse mAb to β-actin (Servicebio, China) as an internal reference. Afterward, the membranes were incubated with horseradish peroxidase-conjugated rat anti-rabbit IgG (CST, USA) or rat anti-mouse IgG (CST, USA). Immunoreactive bands were visualized using enhanced chemiluminescence substrate BeyoECL Plus (Beyotime, China).
Fig 4 NVP-HSP990 inhibited MAPK activation and facilitated expression of tight junction-associated proteins in intestinal cells. […]
Supplementary Fig. 7. […] The grayscale values of WB bands were quantified, and the relative protein levels of MAPK components were normalized to β-actin. […]

With `COc1cccc(-c2cc(F)ccc2[C@H]2Cc3nc(N)nc(C)c3C(=O)N2)n1` [NVP-HSP990] the “MAPK activation caused by non-infectious factors (drug stimulation)” value (Caco-2 cells, 1 µM C16-PAF, 100 nM NVP-HSP990, 20 h) was “potently inhibited”, the “MAPK activation (especially ERK1/2 and p38 MAPK)” value (RV-infected Caco-2 and HT-29 cells) was “significantly inhibited” and the “MAPK activation (especially ERK1/2 and p38 MAPK)” value (RV-infected MA104 cells) was “not”.
